According to patent US12643871B2, “Aryl formamide compound containing chiral sulfur oxide or salt thereof, preparation method, herbicidal composition and use thereof” (Qingdao Kingagroot Chemical Compound Co., Ltd., priority 2019, dated 2026):

How the values were obtained:
Rice = experiment: Transplanted rice safety evaluation; format: in vivo, rice (japonica rice/Indica rice); conditions: 60 g/ha; transplanted 3 leaf stage rice, 21 days after treatment
From the text: (§1) The activity level criteria for harmful plant damage (i.e., growth control rate) are as follows: • Level 5: growth control rate is above 85%; • Level 4: growth control rate is greater than or equal to 60% and less than 85%; • Level 3: growth control rate is greater than or equal to 40% and less than 60%; • Level 2: growth control rate is greater than or equal to 20% and less than 40%; • Level 1: growth control rate is greater than or equal to 5% and less than 20%; • Level 0: growth control rate is less than 5%.
In addition, the rice field soil that loaded into the 1/1,000,000 ha pot was leveled to keep water storage at 3-4 cm depth. The 3 leaf stage rice (japonica rice/Indica rice) was transplanted at 3 cm of transplanting depth the next day. The compound of the present invention was treated by the same way after 5 days of transplantation.
(§2) The fertility condition of Echinochloa crusgali, Scirpus juncoides, Bidens tripartita, Leptochloa chinensis, Sagittaria trifolia and Monochoria vaginalis 14 days after the treatment of the compound of the invention and the fertility condition of rice 21 days after the treatment of the compound of the invention respectively with the naked eye. Evaluate the weed control effect with 0-5 activity standard level. Many compounds show excellent activity and selectivity.

Monochoria vaginalis = experiment: Weed control effect evaluation in rice field; format: in vivo; conditions: 60 g/ha; rice field pot, 14 days after treatment; ALS-inhibitor resistant weed from Heilongjiang
From the text: as §1
(§3) Rice field soil was loaded into a 1/1,000,000 ha pot. The seeds of Echinochloa crusgali, Scirpus juncoides, Bidens tripartita, Sagittaria trifolia, Monochoria vaginalis and Leptochloa chinensis were sowed and gently covered with soil, then left to stand still in greenhouse in the state of 0.5-1 cm of water storage. The tuber of Sagittaria trifolia was planted in the next day or 2 days later. It was kept at 3-4 cm of water storage thereafter. The weeds were treated by dripping the WP or SC water diluents prepared according to the common preparation method of the compounds of the present invention with pipette homogeneously to achieve specified effective amount when Echinochloa crusgali, Scirpus juncoides, Bidens tripartita, Monochoria vaginalis and Leptochloa chinensis reached 0.5 leaf stage and Sagittaria trifolia reached the time point of primary leaf stage.
as §2

Echinochloa crusgali [1] = experiment: Weed control effect evaluation in rice field; format: in vivo; conditions: 60 g/ha; rice field pot, 14 days after treatment; ALS-inhibitor resistant weed from Heilongjiang
From the text: as §1, §3, §2

Leptochloa chinensis = experiment: Weed control effect evaluation in rice field; format: in vivo; conditions: 60 g/ha; rice field pot, 14 days after treatment
From the text: as §1, §3, §2

Sagittaria trifolia = experiment: Weed control effect evaluation in rice field; format: in vivo; conditions: 60 g/ha; rice field pot, 14 days after treatment; ALS-inhibitor resistant weed from Heilongjiang
From the text: as §1, §3, §2

Abutilon theophrasti = experiment: Weeding effect in post-emergence stage; format: in vivo; conditions: 250 g/ha; 2 leaf stage; 15 days after application; fresh weight control rate
In short: (§4)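 Post-emergence spray, 2-leaf stage; doses 500–15 g/ha; acetone + Tween 80 + methyl oleate EC (1.5 L/ha) as synergist. Greenhouse 15 d. Readout: fresh weight control rate graded levels 0–5 (5 = above 85%, 0 = below 5%); triplicate means.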

Amaranthus retroflexus = experiment: Weeding effect in post-emergence stage; format: in vivo; conditions: 250 g/ha; 2 leaf stage; 15 days after application; fresh weight control rate
In short: as §4

Echinochloa crusgali [2] = experiment: Weeding effect in post-emergence stage; format: in vivo; conditions: 250 g/ha; 2 leaf stage; 15 days after application; fresh weight control rate
In short: as §4

Digitaria sanguinalis = experiment: Weeding effect in post-emergence stage; format: in vivo; conditions: 250 g/ha; 2 leaf stage; 15 days after application; fresh weight control rate
In short: as §4

Setaria viridis = experiment: Weeding effect in post-emergence stage; format: in vivo; conditions: 250 g/ha; 2 leaf stage; 15 days after application; fresh weight control rate
In short: as §4

CC[S@@+]([O-])c1c(C(F)(F)F)ccc(C(=O)Nc2nnc(C)o2)c1SC [Compound 548]
Herbicidal effects of compounds, Rice, 0-5 activity standard level (Rice): 0 (Level 0: growth control rate is less than 5%)
Herbicidal effects of compounds, Monochoria vaginalis, 0-5 activity standard level (Monochoria vaginalis): 5 (Level 5: growth control rate is above 85%)
Herbicidal effects of compounds, Echinochloa crusgali, 0-5 activity standard level (Echinochloa crusgali [1]): 5 (Level 5: growth control rate is above 85%)
Herbicidal effects of compounds, Leptochloa chinensis, 0-5 activity standard level (Leptochloa chinensis): 5 (Level 5: growth control rate is above 85%)
Herbicidal effects of compounds, Sagittaria trifolia, 0-5 activity standard level (Sagittaria trifolia): 5 (Level 5: growth control rate is above 85%)
weeding effect in post-emergence stage, activity level (growth control rate), Abutilon theophrasti (Abutilon theophrasti): 5 (Level 5: growth control rate is above 85%)
weeding effect in post-emergence stage, activity level (growth control rate), Amaranthus retroflexus (Amaranthus retroflexus): 5 (Level 5: growth control rate is above 85%)
weeding effect in post-emergence stage, activity level (growth control rate), Echinochloa crusgali (Echinochloa crusgali [2]): 5 (Level 5: growth control rate is above 85%)
weeding effect in post-emergence stage, activity level (growth control rate), Digitaria sanguinalis (Digitaria sanguinalis): 5 (Level 5: growth control rate is above 85%)
weeding effect in post-emergence stage, activity level (growth control rate), Setaria viridis (Setaria viridis): 5 (Level 5: growth control rate is above 85%)
